Data reported in publication PMC2951742 (ChemMedChem, 2010).
Like-named read-outs stand apart in the source and are kept apart here.

Legend:
human 5-HT2B receptor = human 5-HT2B receptor (Homo sapiens, UniProt P41595); assay: Calcium flux; type: cell-based; details: for 5-HT2B %MAX ± SEM: percent of maximal activation by 5-HT, activation at 10 μM for compounds without EC50 value
hERG = hERG (Homo sapiens, UniProt Q12809); assay: hERG assay; details: for hERG inhibition: result in words
human 5-HT2A receptor = human 5-HT2A receptor (Homo sapiens, UniProt P28223); assay: Calcium flux; type: cell-based; details: for 5-HT2A %MAX ± SEM: percent of maximal activation by 5-HT, activation at 10 μM for compounds without EC50 value; for 5-HT2A EC50 ± SEM: HEK-293, calcium flux
Sequence of human 5-HT2A receptor (P28223 whole entry): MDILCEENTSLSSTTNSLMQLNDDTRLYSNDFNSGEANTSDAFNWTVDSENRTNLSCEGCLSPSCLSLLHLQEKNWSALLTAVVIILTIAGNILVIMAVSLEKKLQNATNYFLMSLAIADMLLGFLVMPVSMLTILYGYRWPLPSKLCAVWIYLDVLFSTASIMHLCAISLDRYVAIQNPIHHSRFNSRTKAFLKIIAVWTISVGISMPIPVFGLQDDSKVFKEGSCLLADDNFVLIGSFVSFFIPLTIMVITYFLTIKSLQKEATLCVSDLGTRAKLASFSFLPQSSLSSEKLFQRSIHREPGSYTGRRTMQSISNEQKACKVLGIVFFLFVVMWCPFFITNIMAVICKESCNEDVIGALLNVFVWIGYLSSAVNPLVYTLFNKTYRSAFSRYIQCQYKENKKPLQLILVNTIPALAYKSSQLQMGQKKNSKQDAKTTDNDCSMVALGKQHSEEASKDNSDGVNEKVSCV

[1] = molecular target: T1, human 5-HT2C (INI) receptor (Homo sapiens, UniProt P28335); assay: Calcium flux; type: cell-based; details: for 5-HT2C %MAX ± SEM: percent of maximal activation by 5-HT; for Selectivity 2A/2C / Selectivity 2B/2C: ratio of EC50 values
T1 sequence (P28335 33-458): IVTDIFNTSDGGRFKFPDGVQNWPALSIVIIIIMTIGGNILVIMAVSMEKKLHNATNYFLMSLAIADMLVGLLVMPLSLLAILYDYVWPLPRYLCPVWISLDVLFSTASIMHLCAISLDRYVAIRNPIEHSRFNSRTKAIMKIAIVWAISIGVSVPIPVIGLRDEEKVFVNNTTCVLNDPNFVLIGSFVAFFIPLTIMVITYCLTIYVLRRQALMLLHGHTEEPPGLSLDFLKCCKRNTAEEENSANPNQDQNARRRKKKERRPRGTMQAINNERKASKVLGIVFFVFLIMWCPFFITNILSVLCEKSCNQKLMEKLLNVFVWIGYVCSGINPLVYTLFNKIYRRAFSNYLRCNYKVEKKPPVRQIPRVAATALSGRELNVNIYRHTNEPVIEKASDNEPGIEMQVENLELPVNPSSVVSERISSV

[2] = tested on: PCP-disrupted PPI in mice; details: identical PPI testing paradigm, earlier work; cited from earlier work
CYP2D6 = CYP2D6 (Homo sapiens, UniProt P10635); assay: Recombinant CYP inhibition test, CYP2D6; type: in vitro ADME; details: at 10 μM
Sequence of CYP2D6 (P10635 whole entry): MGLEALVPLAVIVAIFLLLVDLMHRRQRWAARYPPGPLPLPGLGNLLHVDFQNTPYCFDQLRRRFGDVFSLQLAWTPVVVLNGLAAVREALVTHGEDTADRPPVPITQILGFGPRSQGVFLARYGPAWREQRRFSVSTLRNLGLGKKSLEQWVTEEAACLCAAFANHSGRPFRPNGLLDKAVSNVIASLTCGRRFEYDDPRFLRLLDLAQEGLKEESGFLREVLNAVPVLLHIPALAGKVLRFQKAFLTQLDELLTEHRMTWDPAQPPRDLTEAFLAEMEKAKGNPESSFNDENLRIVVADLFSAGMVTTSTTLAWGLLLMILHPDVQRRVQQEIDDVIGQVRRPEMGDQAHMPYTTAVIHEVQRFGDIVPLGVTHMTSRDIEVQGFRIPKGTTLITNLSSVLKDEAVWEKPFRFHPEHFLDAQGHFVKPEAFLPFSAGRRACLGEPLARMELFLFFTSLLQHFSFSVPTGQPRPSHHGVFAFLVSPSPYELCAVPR

animals = assay: Adverse side effects in animals; details: in vivo
CYP3A4 = CYP3A4 (Homo sapiens, UniProt P08684); assay: Recombinant CYP inhibition test, CYP3A4; type: in vitro ADME; details: at 10 μM
Sequence of CYP3A4 (P08684 whole entry): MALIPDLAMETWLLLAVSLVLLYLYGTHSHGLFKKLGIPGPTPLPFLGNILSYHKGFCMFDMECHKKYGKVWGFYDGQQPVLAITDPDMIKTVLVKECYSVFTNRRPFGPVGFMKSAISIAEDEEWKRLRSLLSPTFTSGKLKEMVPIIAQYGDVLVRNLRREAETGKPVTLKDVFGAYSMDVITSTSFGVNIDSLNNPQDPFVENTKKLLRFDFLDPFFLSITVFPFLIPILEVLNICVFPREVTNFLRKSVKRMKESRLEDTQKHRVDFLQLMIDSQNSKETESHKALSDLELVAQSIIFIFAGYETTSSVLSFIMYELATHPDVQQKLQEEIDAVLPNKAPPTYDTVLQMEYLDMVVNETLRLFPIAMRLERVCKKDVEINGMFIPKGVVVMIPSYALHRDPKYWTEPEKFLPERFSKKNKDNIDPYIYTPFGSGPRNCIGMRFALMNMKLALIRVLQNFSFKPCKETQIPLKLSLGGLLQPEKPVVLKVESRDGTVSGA

[3] = tested on: PCP-disrupted PPI in mice; assay: Normalization of PCP-disrupted prepulse inhibition; type: in vivo; details: 6 mg/kg PCP ip
[4] = Microsomal stability, human microsomes; type: in vitro ADME; details: 1h assay
[5] = Microsomal stability, rat microsomes; type: in vitro ADME; details: 1h assay
CYP2C9 = CYP2C9 (Homo sapiens, UniProt P11712); assay: Recombinant CYP inhibition test, CYP2C9; type: in vitro ADME; details: at 10 μM
Sequence of CYP2C9 (P11712 whole entry): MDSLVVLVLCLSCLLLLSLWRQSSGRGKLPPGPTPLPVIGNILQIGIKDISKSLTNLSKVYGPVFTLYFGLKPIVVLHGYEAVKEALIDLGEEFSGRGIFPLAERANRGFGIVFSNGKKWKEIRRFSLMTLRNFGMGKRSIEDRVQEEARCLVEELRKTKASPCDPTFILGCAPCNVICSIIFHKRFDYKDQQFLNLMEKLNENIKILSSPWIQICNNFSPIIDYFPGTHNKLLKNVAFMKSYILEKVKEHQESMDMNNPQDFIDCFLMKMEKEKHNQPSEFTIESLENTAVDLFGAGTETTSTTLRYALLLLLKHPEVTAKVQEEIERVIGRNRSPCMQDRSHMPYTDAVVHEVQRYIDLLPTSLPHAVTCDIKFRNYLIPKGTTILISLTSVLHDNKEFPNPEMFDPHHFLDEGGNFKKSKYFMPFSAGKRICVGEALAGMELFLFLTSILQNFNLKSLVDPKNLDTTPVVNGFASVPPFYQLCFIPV

Sequence of human 5-HT2B receptor (P41595 whole entry): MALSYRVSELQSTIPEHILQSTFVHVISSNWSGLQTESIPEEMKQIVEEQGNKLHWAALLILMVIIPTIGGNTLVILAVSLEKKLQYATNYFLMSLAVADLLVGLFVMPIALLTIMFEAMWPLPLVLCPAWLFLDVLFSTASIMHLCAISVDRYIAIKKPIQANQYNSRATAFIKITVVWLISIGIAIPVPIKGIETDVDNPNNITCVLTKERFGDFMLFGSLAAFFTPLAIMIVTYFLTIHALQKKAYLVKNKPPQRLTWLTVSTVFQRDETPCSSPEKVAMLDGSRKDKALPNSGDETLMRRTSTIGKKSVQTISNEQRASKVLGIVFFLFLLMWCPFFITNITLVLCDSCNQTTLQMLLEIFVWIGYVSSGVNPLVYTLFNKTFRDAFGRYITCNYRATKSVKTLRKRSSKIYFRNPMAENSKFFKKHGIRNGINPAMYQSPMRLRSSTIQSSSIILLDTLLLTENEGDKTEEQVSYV
Sequence of hERG (Q12809 whole entry): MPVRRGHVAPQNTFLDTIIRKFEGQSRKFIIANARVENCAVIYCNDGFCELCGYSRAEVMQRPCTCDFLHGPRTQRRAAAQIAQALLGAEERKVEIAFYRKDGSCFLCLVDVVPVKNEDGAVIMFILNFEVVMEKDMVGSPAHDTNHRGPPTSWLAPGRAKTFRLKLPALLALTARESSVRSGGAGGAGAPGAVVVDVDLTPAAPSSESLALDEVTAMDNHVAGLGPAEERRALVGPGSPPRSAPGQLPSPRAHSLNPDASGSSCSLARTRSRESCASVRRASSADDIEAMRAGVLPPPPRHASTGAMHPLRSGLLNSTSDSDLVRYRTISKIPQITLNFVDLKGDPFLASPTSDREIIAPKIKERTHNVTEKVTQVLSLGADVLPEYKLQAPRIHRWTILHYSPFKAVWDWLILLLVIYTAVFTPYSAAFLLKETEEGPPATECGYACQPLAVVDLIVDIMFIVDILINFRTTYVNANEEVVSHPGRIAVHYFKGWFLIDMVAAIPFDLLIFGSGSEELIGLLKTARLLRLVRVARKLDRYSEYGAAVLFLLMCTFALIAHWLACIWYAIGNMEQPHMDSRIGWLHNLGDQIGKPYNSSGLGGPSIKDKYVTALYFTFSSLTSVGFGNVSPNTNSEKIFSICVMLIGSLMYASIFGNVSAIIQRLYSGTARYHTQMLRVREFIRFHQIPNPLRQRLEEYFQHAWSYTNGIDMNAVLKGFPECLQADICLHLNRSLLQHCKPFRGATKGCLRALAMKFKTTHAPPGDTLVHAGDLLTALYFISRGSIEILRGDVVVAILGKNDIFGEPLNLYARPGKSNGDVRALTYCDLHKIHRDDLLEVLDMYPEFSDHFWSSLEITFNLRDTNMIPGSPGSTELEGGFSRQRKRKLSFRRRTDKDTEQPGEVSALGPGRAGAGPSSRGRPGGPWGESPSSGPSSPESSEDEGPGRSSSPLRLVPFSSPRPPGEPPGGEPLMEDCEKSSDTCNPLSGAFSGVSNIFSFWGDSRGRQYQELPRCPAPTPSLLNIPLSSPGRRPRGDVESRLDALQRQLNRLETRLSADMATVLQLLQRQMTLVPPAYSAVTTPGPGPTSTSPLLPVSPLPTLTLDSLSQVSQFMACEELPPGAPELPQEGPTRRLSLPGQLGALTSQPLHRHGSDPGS

C[C@H]1CNCCc2ccc(Cl)cc21 [2 (Lorcaserin), Lorcaserin]
5-HT2B %MAX ± SEM (human 5-HT2B receptor; first screening campaign): 93% ± 1.2%
hERG inhibition (hERG): no hERG inhibition was detected

c1cc2c3c(c1)[C@H]1CCC[C@H]1CN3CCNC2 [3 (Vabicaserin), Vabicaserin]
hERG inhibition (hERG): no hERG inhibition was detected

O=C1Nc2cc(Cl)c(Cl)cc2N2CCNCC12 (centres unmarked) [4 (WAY-161503), WAY-161503]
5-HT2A %MAX ± SEM (human 5-HT2A receptor; first screening campaign): 80% ± 1.0%
5-HT2A %MAX ± SEM (human 5-HT2A receptor; second screening campaign): 79% ± 4.5%
5-HT2C %MAX ± SEM ([1]; first screening campaign): 97% ± 1.6%
Selectivity 2A/2C ([1]; first screening campaign): 70
Selectivity 2B/2C ([1]; first screening campaign): 14
5-HT2C %MAX ± SEM ([1]; second screening campaign): 94% ± 3.6%
Selectivity 2A/2C ([1]; second screening campaign): 40
Selectivity 2B/2C ([1]; second screening campaign): 11
5-HT2B %MAX ± SEM (human 5-HT2B receptor; first screening campaign): 92% ± 1.3%
5-HT2B %MAX ± SEM (human 5-HT2B receptor; second screening campaign): 86% ± 4.7%
hERG inhibition, concentration value (hERG; quantity not given): 3.6 mM
hERG inhibition (hERG): very modest inhibition

CN1CCN(C2=Nc3cc(Cl)ccc3Nc3ccccc32)CC1 [clozapine]
Normalization of PCP-disrupted PPI [2]: robustly normalizes PCP-disrupted PPI

NCC1CC1c1cc(F)ccc1OCC1CC1 (single isomer, unassigned; (+)) [(+)-12, trans-[2-(2 cyclopropylmethyloxy-5-fluorophenyl)cyclopropyl]-methylamine]
CYP2D6 inhibition (CYP2D6): 27.0%
Adverse side effects in animals (animals): no adverse side effects
CYP3A4 inhibition (CYP3A4; midazolam as substrate): 21.7%
CYP3A4 inhibition (CYP3A4; testosterone as substrate): 25.1%
Normalization of PCP-disrupted PPI ([3]; 5 mg/kg dose level): still effective
Normalization of PCP-disrupted PPI ([3]; 10 mg/kg): able to normalize PCP-disrupted PPI
Normalization of PCP-disrupted PPI (Figure 3) ([3]; 30 min pre-treatment, dose not stated in legend): effectively normalize PCP-disruption of PPI
Microsomal stability, % left [4]: 90.5%
hERG inhibition (hERG): no hERG inhibition was detected
Microsomal stability, % left [5]: 66%
CYP2C9 inhibition (CYP2C9): 19.6%

c1cc2c3c(c1)c1c(n3CCNC2)CCCC1 [5 (WAY 629), WAY 629]
5-HT2A EC50 ± SEM (human 5-HT2A receptor; first screening campaign (upper table section)): NA (NA: Emax ≤ 12%)
5-HT2A %MAX ± SEM (human 5-HT2A receptor; first screening campaign): 1% ± 0.2%
5-HT2A EC50 ± SEM (human 5-HT2A receptor; second screening campaign (lower table section)): NA (NA: Emax ≤ 12%)
5-HT2A %MAX ± SEM (human 5-HT2A receptor; second screening campaign): 7% ± 2.0%
5-HT2C %MAX ± SEM ([1]; first screening campaign): 80% ± 1.1%
5-HT2C %MAX ± SEM ([1]; second screening campaign): 82% ± 3.5%
5-HT2B EC50 ± SEM (human 5-HT2B receptor; first screening campaign (upper table section), HEK-293, calcium flux): NA (NA: Emax ≤ 12%)
5-HT2B %MAX ± SEM (human 5-HT2B receptor; first screening campaign): 6% ± 1.3%
EC50 (human 5-HT2B receptor; read-out: 5-HT2B EC50, second screening campaign, value in μM): > 5 µM
5-HT2B %MAX ± SEM (human 5-HT2B receptor; second screening campaign): 17% ± 2.7%
hERG inhibition (hERG): no hERG inhibition was detected
